How the values were obtained:
[1] = tested on: rat hepatocytes; experiment: Stimulation of glutathione (GSH) biosynthesis in isolated rat hepatocytes by L-cysteine prodrugs; format: cell-based; conditions: for [GSH] ± SE: control 35.4 ± 0.78
Experimental: (§1) Rat hepatocytes were isolated following the methods of P. O. Seglen, Exper. […] After final plating, the hepatocytes were maintained in culture for 24 hr prior to use. Only primary cultures were used throughout the studies. The hepatocytes were incubated with the cysteine prodrugs for a 4-hr period, and after removal of media by aspiration, the cells were rinsed with cold phosphate-buffered saline and deproteinized with 5% sulfosalicylic acid. […] For the inhibition studies with BSO, the cells were pre-exposed to BSO (0.20 mM) before treatment with the L-cysteine prodrugs.

[2] = tested on: rat hepatocytes; experiment: Inhibitory effect of buthionine sulfoximine (BSO) on GSH elevation elicited by L-cysteine prodrugs in rat hepatocytes; format: cell-based; conditions: for [GSH] ± SE: rat hepatocytes pre-exposed to BSO 0.2 mM, 4 hr; for [GSH] Rel. to Controls: rat hepatocytes, BSO 0.2 mM, 240 min
Experimental: as §1

[3] = tested on: acetaminophen-induced hepatotoxicity; experiment: Protection against acetaminophen-induced hepatotoxicity in mice; format: in vivo; conditions: prodrug 2.45 mmole/kg ip 30 min later; for Survival (48 hr) (%) / Survival (48 hr) (Number): LD90 acetaminophen 750 mg/kg ip; for Survival (48 hr) (Number): survivors/total; for Number of Animals with necrosis 0 / Number of Animals with necrosis 1+ / Number of Animals with necrosis 2+ / Number of Animals with necrosis 3+ / Number of Animals with necrosis 4+: LD90 acetaminophen ip, liver histology, Mitchell rating
Experimental: Compounds 1a through 1h were evaluated in a mouse model for their ability to protect against the hepatotoxic action of acetaminophen. The experimental protocol involved the administration of an LD90 dose of acetaminophen, followed 30 min. later by the prodrug as potential protective agent. Toxicity was assessed based on overall survival data at 48 hrs, as well as on histological criteria of hepatocellular damage using the rating system of J. R. Mitchell et al., J. Pharmacol. Exp. Ther., 187, 185 (1973).
The prodrugs of L-cysteine were examined for their ability to protect against acetaminophen-induced hepatotoxicity in mice essentially as described by H. T. Nagasawa et al., J. Med. Chem., 25, 489 (1982). Male Swiss-Webster mice (19 to 31 g) were fasted overnight but given free access to water. An LD90 dose of acetaminophen (750 mg/kg, 4.97 mmol/kg, ip) was then administered, followed 30 min later by a 2.45 mmole/kg ip dose of the L-cysteine prodrug. All injection solutions were freshly prepared in sterile water, except where solubility problems required the use of sterile 0.1N aqueous NaHCO3 or a slurry of the prodrug in 2% aqueous carboxymethylcellulose (CMC). The animals were then given food and water ad libitum and were observed over a 48-hr period.
Represenative sections from the central lobe of the liver were obtained from those animals found dead at 12, 24 and 48 hr. Survivors at 48 hr were sacrificed by cervical dislocation and the liver sections were similarly excised and sectioned. All specimens were fixed on 10% buffered formalin and in Form-a-Less (PMP, Inc., San Diego, CA) and stained with hematoxylin and eosin. The extent of hepatic necrosis was evaluated histologically by an investigator who had no knowledge of the experimental protocols or sample identity.

[4] = tested on: heptatotoxic dosages of acetaminophen; conditions: previous studies (Nagasawa 1984; Meister US 4,335,210); cited from earlier work
[5] = Hepatocyte, rat hepatocytes, prodrug 1.0 mM, 4 hr incubation, read-out: [GSH] Rel. to Controls
[6] = rat hepatocytes, prodrug 1.0 mM, 4 hr incubation

| SMILES | fold induction at 1000 µM [1, 5] | [GSH] ± SE [1, 6] [nmol/10^6 cells] | [GSH] ± SE ([2]; prodrug 1.0 mM) [nmol/10^6 cells] | [GSH] Rel. to Controls ([2]; prodrug 1.0 mM) | Survival (48 hr) (%) [3] [%] | Survival (48 hr) (Number) [3] | Number of Animals with necrosis 0 [3] | Number of Animals with necrosis 1+ [3] | Number of Animals with necrosis 2+ [3] | Number of Animals with necrosis 3+ [3] | Number of Animals with necrosis 4+ [3] | protection of mice from hepatotoxic dosages of acetaminophen [4] | [GSH] Rel. to Controls [1, 6] | fold induction at 2500 µM ([1]; Rattus norvegicus, Hepatocyte, 4 h, read-out: [GSH] Rel. to Controls) | [GSH] ± SE ([1]; rat hepatocytes, 2.5 mM, 4 hr incubation) [nmol/10^6 cells] | raised GSH levels by ([1]; rat hepatocytes, 2.5 times the concentration of the thiazolidine prodrugs) [%] | [GSH] ± SE ([2]; 2.5 mM) [nmol/10^6 cells] | [GSH] Rel. to Controls ([2]; 2.5 mM) |
| --- | --- | --- | --- | --- | --- | --- | --- | --- | --- | --- | --- | --- | --- | --- | --- | --- | --- | --- |
| O=C(O)[C@@H]1CSC([C@@H](O)[C@H](O)[C@H](O)CO)N1 (mixture of isomers) [AraCys, 2(R,S)-D-arabino-1',2',3',4'-Tetrahydroxybutylthiazolidine-4(R)-carboxylic Acid] | 1.2 | 42.9 ± 2.17 | 19.5 ± 3.75 | 0.6 | 40 | 4/10 | 0 | 1 | 2 | 0 | 7 |  |  |  |  |  |  |  |
| CC1N[C@H](C(=O)O)CS1 (stereo partly drawn) [2(R,S)-methylthiazolidine-4R-carboxylate] |  |  |  |  |  |  |  |  |  |  |  | can protect mice |  |  |  |  |  |  |
| CCCCCC1N[C@H](C(=O)O)CS1 (stereo partly drawn) [2(R,S)-n-pentyl] |  |  |  |  |  |  |  |  |  |  |  | can protect mice |  |  |  |  |  |  |
| CCCC1N[C@H](C(=O)O)CS1 (stereo partly drawn) [2(R,S)-n-propyl-] |  |  |  |  |  |  |  |  |  |  |  | can protect mice |  |  |  |  |  |  |
| O=C(O)[C@@H]1CSC([C@H](O)[C@@H](O)[C@@H](O)[C@H](O)CO)N1 (stereo partly drawn) [GalCys, 2(R,S)-D-galacto-1',2',3',4',5'-Pentahydroxypentylthiazolidine-4(R)-carboxylic Acid] | 1.6 | 58.0 ± 2.00 | 23.2 ± 2.56 | 0.7 | 60 | 6/10 | 1 | 3 | 2 | 0 | 4 |  |  |  |  |  |  |  |
| O=C(O)[C@@H]1CSC([C@H](O)[C@@H](O)[C@H](O)[C@H](O)CO)N1 (stereo partly drawn) [GlcCys, 2(R,S)-D-gluco-1',2',3',4',5'-Pentahydroxypentylthiazolidine-4(R)-carboxylic Acid] | 2.1 | 75.2 ± 2.15 | 25.4 ± 0.99 | 0.7 | 30 | 3/10 | 0 | 2 | 0 | 1 | 7 |  | over twice |  |  |  |  |  |
| O=C(O)[C@@H]1CSC([C@H](O)CO)N1 (stereo partly drawn) [GlycCys, 2(R,S)-D-glycero-1',2'-Dihydroxyethylthiazolidine-4(R)carboxylic Acid] | 1.3 | 46.1 ± 1.10 | 18.3 ± 6.41 | 0.5 | 30 | 3/10 | 0 | 0 | 1 | 2 | 7 |  |  |  |  |  |  |  |
| O=C1N[C@H](C(=O)O)CS1 [L-2-oxothiazolidine-4-carboxylate] |  |  |  |  |  |  |  |  |  |  |  | can protect mice |  |  |  |  |  |  |
| O=C(O)[C@@H]1CSC([C@@H](O)[C@@H](O)[C@H](O)CO)N1 (stereo partly drawn) [LyxCys, 2(R,S)-D-lyxo-1',2',3',4'-Tetrahydroxybutylthiazolidine-4(R)-carboxylic Acid] | 1.3 | 45.9 ± 1.95 | 22.4 ± 1.98 | 0.6 | 30 | 3/10 | 0 | 0 | 0 | 1 | 9 |  |  |  |  |  |  |  |
| O=C(O)[C@@H]1CSC([C@@H](O)[C@@H](O)[C@H](O)[C@H](O)CO)N1 (stereo partly drawn) [ManCys, 2(R,S)-D-manno-1',2',3',4',5'-Pentahydroxypentylthiazolidine-4(R)-carboxylic Acid] | 1.6 | 57.8 ± 0.87 | 18.9 ± 1.87 | 0.5 | 40 | 4/10 | 3 | 0 | 1 | 0 | 6 |  |  |  |  |  |  |  |
| CC(=O)N[C@@H](CS)C(=O)O [NAC, N-Acetyl-L-cysteine, reference compound] |  |  |  |  | 94 | 17/18 | 13 | 3 | 0 | 1 | 1 | can protect mice |  | 1.3 | 45.8 ± 1.27 | 30 | 25.5 ± 1.59 | 0.7 |
| O=C(O)[C@@H]1CSC([C@H](O)[C@H](O)[C@H](O)CO)N1 (stereo partly drawn) [RibCys, 2(R,S)-D-ribo-1',2',3',4'-Tetrahydroxybutylthiazolidine-4(R)-carboxylic Acid] | 1.7 | 61.2 ± 1.52 | 16.2 ± 3.60 | 0.5 | 100 | 12/12 | 4 | 2 | 6 | 0 | 0 |  |  |  |  |  |  |  |
| O=C(O)[C@@H]1CSC([C@H](O)[C@@H](O)[C@H](O)CO)N1 (stereo partly drawn) [XylCys, 2(R,S)-D-xylo-1',2',3',4'-Tetrahydroxybutylthiazolidine-4(R)-carboxylic Acid] | 1.6 | 58.3 ± 0.99 | 22.6 ± 1.84 | 0.8 | 60 | 6/10 | 3 | 2 | 0 | 0 | 5 |  |  |  |  |  |  |  |

Source: patent US4868114A, “Method for elevating glutathione levels” (Regents of the University of Minnesota, priority 1989, dated 1989)
